The target in one assay is T1, murine FAP (Mus musculus, UniProt P97321).
T1 sequence (P97321 1-761): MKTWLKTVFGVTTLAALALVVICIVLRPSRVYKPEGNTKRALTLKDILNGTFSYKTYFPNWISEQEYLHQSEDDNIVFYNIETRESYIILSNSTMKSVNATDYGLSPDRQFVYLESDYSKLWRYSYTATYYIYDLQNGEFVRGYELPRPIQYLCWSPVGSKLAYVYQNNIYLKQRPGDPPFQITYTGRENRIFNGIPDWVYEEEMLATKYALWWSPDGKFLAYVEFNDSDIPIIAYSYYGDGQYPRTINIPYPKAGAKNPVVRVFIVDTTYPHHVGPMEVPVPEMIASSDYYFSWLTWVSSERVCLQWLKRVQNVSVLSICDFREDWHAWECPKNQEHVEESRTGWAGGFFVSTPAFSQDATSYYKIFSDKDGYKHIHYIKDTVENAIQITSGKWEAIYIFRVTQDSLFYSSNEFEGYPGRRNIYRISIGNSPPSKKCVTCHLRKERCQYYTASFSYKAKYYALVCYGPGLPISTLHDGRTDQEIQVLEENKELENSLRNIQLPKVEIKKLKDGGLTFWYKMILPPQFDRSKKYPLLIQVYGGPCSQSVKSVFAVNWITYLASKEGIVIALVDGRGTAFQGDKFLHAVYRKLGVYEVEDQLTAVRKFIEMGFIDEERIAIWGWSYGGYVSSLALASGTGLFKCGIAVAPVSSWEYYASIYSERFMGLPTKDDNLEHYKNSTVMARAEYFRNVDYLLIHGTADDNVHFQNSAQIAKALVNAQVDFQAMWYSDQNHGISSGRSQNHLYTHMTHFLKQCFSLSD
In words: In vitro inhibition assay on mouse FAP (Z-GP-AMC substrate). In kind it is biochemical. The conditions noted are these: enzymatic assay; 20 µM Z-GP-AMC, 20 nM FAP; unit inferred. The protocol: Enzymatic activity of human FAP (hFAP) and mouse FAP (mFAP) on the Z-GP-AMC substrate was measured at room temperature on a Hidex microplate reader by monitoring the fluorescence at an excitation wavelength of 360 nm and an emission wavelength of 465 nm. The reaction mixture contained 20 µM substrate, 20 nM FAP, assay buffer (50 mM Tris, 100 mM NaCl, 1 mM EDTA, pH 7.4) and tested compound (serial dilution from 10^-6 to 10^-12) in a total volume of 50 µL.

Another assay deals with T2, FAP (Homo sapiens, UniProt Q12884).
T2 sequence (Q12884 1-760): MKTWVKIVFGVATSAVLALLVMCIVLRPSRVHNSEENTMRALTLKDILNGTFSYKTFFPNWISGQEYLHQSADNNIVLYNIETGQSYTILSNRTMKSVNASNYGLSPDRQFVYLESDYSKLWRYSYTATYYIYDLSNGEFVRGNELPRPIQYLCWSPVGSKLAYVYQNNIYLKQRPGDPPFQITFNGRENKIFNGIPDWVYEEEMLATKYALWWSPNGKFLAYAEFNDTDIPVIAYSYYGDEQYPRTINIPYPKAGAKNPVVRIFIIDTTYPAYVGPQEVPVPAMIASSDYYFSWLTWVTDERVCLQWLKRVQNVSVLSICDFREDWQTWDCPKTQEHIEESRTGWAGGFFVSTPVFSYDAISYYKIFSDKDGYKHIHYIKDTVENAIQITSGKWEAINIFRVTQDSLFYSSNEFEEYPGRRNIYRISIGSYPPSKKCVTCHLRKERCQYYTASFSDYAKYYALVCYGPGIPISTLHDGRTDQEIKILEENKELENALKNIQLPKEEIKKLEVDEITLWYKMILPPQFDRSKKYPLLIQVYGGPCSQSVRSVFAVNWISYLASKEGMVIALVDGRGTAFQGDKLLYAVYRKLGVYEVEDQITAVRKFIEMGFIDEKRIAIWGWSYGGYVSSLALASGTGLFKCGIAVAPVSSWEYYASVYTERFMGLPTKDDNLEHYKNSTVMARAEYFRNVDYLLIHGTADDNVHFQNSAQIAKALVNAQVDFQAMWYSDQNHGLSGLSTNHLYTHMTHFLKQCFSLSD
In words: Competitive binding assay against [111In]In-FAPI-46 in HT-1080.hFAP cells. The arrangement: expressed in transfected cells; host or cells: HT-1080.hFAP cells. The conditions noted are these: competition with [111In]In-FAPI-46 in HT-1080.hFAP cells, 37 °C, 1 h; unit inferred. The protocol:
The U-87 MG glioblastoma was cultured at 37 °C and 5% CO2 in Dulbecco's Modified Eagle Medium (DMEM) supplemented with 10 % (v/v) fetal calf serum. HT-1080.hFAP cells were kept in culture in DMEM medium supplemented with fetal bovine serum (10%, FBS) and antibiotic antimycotic (1%, AA) at 37 °C and 5% CO2. For passaging, cells were detached using Trypsin-EDTA 0.05% when reaching 90% confluence and re-seeded at a dilution of 1:4.
Competition binding experiments were conducted by incubation of the [^111In]In-FAPI-46 radioligand with increasing concentrations of eFAP compound in HT-1080.hFAP cells at 37 °C for 1 h. Cells were then washed three times with binding buffer and lysed. The cell-associated radioactivity was measured in a γ-counter. The IC50 values were calculated by fitting the data by non-linear regression using GraphPad Prism.

The next assay addresses DPP4 (Homo sapiens, UniProt P27487). As to the kind of experiment: In vitro inhibition assay on DPP4 (Z-GP-pNA substrate). In kind it is biochemical. The conditions noted are these: enzymatic assay; 20 µM Z-GP-pNA; unit inferred.

Chain of DPP4 (P27487 39-766): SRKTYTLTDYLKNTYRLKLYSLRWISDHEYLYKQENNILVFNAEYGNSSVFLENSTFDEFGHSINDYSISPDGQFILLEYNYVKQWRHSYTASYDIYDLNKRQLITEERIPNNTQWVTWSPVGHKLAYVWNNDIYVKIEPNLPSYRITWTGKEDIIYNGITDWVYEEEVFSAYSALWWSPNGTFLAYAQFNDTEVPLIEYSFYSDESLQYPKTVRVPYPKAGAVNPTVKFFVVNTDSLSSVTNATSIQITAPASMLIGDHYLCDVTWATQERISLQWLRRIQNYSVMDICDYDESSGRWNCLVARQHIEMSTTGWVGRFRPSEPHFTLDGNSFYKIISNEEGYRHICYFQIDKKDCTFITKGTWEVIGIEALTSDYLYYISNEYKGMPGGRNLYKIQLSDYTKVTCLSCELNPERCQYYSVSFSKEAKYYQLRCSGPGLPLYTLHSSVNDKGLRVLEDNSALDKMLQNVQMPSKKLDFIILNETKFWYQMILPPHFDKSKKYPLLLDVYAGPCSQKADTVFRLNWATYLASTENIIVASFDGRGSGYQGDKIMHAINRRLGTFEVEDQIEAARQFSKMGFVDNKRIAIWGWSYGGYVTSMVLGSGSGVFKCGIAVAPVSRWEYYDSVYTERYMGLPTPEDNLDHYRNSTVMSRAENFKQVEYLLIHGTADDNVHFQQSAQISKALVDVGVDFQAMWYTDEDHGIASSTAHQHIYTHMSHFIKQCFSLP

The IC50 is the concentration that gives 50% inhibition. Higher therefore signals lower potency. As to `N#C[C@@H]1CC(F)(F)CN1C(=O)CNC(=O)c1ccnc2c(OCCCNC(=O)CN3CCN(CC(=O)O)CCN(CC(=O)O)CCN(CC(=O)O)CC3)cccc12` [eFAP-6, (S)-2,2',2"-(10-(2-((3-((4-((2-(2-Cyano-4,4-difluoropyrrolidin-1-yl)-2-oxoethyl)carbamoyl)quinolin-8-yl)oxy)propyl)amino)-2-oxoethyl)-1,4,7,10-tetraazacyclododecane-1,4,7-triyl)triacetic acid], the IC50 against murine FAP was 3.1 ± 2.4 nM; at FAP it was 0.66 nM; at DPP4 it was greater than 10000 nM.

For the origin of these results see patent EP4342890A1, “PLATFORM AND SCAFFOLD FOR FAP TARGETING AGENTS” (Erasmus University Rotterdam Medical Center, priority 2022, dated 2024).
